Test results as given in patent US9926297B2, “Bicyclic AZA compounds as muscarinic M1 receptor and/or M4 receptor agonists” (Heptares Therapeutics Limited, priority 2014, dated 2018).
Where two headings read alike, the source gives them in different places.

Columns and labels:
[1] = biological target: T1, human muscarinic M1 receptor (Homo sapiens, UniProt P11229); test: Alphascreen Surefire phospho-ERK1/2 functional assay, M1; format: cell-based; conditions: for EC50: phospho-ERK1/2, * = variable results, read-out: pEC50 M1 (converted); for Emax: CHO
T1 sequence (P11229 1-460): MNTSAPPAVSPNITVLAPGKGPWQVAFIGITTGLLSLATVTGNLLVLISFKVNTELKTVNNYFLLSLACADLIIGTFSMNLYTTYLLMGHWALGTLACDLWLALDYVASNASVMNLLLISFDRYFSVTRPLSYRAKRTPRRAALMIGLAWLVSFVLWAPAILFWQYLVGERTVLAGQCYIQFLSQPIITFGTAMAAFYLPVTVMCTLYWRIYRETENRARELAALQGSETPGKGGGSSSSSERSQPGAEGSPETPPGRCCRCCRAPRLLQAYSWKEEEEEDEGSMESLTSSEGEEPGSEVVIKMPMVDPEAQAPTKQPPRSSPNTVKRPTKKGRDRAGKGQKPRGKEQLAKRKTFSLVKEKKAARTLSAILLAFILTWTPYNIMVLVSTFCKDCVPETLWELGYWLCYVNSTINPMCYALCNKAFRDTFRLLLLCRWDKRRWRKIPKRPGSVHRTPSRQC

[2] = biological target: T2, human muscarinic M4 receptor (Homo sapiens, UniProt P08173); test: Alphascreen Surefire phospho-ERK1/2 functional assay, M4; format: cell-based; conditions: for EC50: phospho-ERK1/2, * = variable results, read-out: pEC50 M4 (converted); for Emax: CHO
T2 construct: expressed in transfected cells
T2 sequence (P08173 1-479): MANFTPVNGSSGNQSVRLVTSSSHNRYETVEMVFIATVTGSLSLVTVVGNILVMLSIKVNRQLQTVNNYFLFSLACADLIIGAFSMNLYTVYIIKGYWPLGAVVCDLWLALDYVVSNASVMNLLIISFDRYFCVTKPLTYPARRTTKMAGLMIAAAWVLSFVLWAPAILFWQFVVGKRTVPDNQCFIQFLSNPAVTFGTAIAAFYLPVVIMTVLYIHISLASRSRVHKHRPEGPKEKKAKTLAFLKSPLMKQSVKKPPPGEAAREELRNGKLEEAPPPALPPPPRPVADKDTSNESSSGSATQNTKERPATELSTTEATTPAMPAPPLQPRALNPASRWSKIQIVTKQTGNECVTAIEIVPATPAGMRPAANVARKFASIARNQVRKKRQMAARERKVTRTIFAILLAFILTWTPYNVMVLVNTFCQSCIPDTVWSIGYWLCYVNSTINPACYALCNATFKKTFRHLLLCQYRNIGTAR

[3] = CHO cells stably expressing human M1
[4] = read-out: % Emax cf. ACh, M1, CHO cells stably expressing human M1, relative to ACh
[5] = CHO cells stably expressing human M4
[6] = read-out: % Emax cf. ACh, M4, CHO cells stably expressing human M4, relative to ACh

| EC50 [1, 3] [nM] | Emax [1, 4] [%] | EC50 [2, 5] [nM] | Emax [2, 6] [%] | % Emax cf. ACh, M1 ([1]; CHO cells stably expressing human M1, relative to ACh) [%] | % Emax cf. ACh, M4 ([2]; CHO cells stably expressing human M4, relative to ACh) [%] | SMILES | Emax ([1]; read-out: % Emax cf. ACh, M1) [%] | Emax ([2]; read-out: % Emax cf. ACh, M4) [%] |
| --- | --- | --- | --- | --- | --- | --- | --- | --- |
| 7940 | 39 | 2510 | 47 |  |  | CCOC(=O)N1CCC2(CC(N3CCC(c4cc[nH]c(=O)c4)CC3)C2)C1 (single isomer, unassigned) [3-16 Isomer 2, ethyl 2-[4-(2-oxo-1,2-dihydropyridin-4-yl)piperidin-1-yl]-6-azaspiro[3.4]octane-6-carboxylate] |  |  |
| 501 | 61 | 158 | 108 |  |  | CCOC(=O)N1CCC2(CC(N3CCC(N4CCC[C@@H]4c4cccs4)CC3)C2)C1 (single isomer, unassigned) [2-131 Isomer 2] |  |  |
| > 20000 | 7 | 251 | 63 |  |  | CCOC(=O)N1CCC2(CC(N3CCC(N4C(=O)CCC4=O)CC3)C2)C1 (single isomer, unassigned) [2-112 Isomer 2, ethyl 2-[4-(2,5-dioxopyrrolidin-1-yl)piperidin-1-yl]-6-azaspiro[3.4]octane-6-carboxylate] |  |  |
| > 20000 | 14 | 316 | 43 |  |  | CCOC(=O)N1CCC2(CC(N3CCC([C@@H]4CCCN4CC(=O)N(C)C)CC3)C2)C1 (single isomer, unassigned) [2-73 Isomer 2] |  |  |
| 63.1 | 109 | 6.31 | 103 |  |  | CCOC(=O)N1CCC2(CC(N3CCC(N4C(=O)CC[C@@H]4CC)CC3)C2)C1 (single isomer, unassigned) [2-116 Isomer 2] |  |  |
| > 20000 | 7 | 251 | 31 |  |  | CCOC(=O)N1CCC2(CC(N3CCC(N4CCCCC4)CC3)C2)C1 (single isomer, unassigned) [4-10 Isomer 2, ethyl 2-(1,4′-bipiperidin-1′-yl)-6-azaspiro[3.4]octane-6-carboxylate] |  |  |
| > 20000 | 7 | > 20000 | 3 |  |  | CCOC(=O)N1CCC2(CC(N3CCC(N4CC(F)(F)C[C@H]4C(=O)NC)CC3)C2)C1 (single isomer, unassigned) [2-93 Isomer 2] |  |  |
| 39.8 | 36 | 25.1 | 58 |  |  | CCOC(=O)N1CCC2(CC(N3CCC(c4c(C)ccnc4OC)CC3)C2)C1 (single isomer, unassigned) [3-11 Isomer 2, ethyl 2-[4-(2-methoxy-4-methylpyridin-3-yl)piperidin-1-yl]-6-azaspiro[3.4]octane-6-carboxylate] |  |  |
| > 20000 | 7 | 251 | 38 |  |  | CCOC(=O)N1CCC2(CC(N3CCC(C4CCCCN4C(=O)CC)CC3)C2)C1 (single isomer, unassigned) [4-19 Isomer 2, ethyl 2-(1-propanoyl-2,4′-bipiperidin-1′-yl)-6-azaspiro[3.4]octane-6-carboxylate] |  |  |
| 126 | 100 | 15.8 | 113 |  |  | CCOC(=O)N1CCC2(CC(N3CCC(N4C(=O)CC[C@H]4C)CC3)C2)C1 (single isomer, unassigned) [2-113 Isomer 2] |  |  |
| > 20000 | 12 | 63.1 | 33 |  |  | CCOC(=O)N1CCC2(CC(N3CCC([C@@H]4CCCN4c4ncccn4)CC3)C2)C1 (single isomer, unassigned) [2-81 Isomer 2] |  |  |
| 316 |  | 12.6 |  | 42 | 20 | CCOC(=O)N1CCC2(CC(N3CCC(N4CCCC4c4nnnn4C)CC3)C2)C1 (single isomer, unassigned) [2-130 Isomer 1, ethyl 2-{4-[2-(1-methyl-1H-tetrazol-5-yl)pyrrolidin-1-yl]piperidin-1-yl}-6-azaspiro[3.4]octane-6-carboxylate] |  |  |
| > 20000 | 7 | 6760 | 80 |  |  | CCOC(=O)N1CCC2(CC(N3CCC(N4CC(F)(F)C[C@H]4C(=O)N(C)C)CC3)C2)C1 (single isomer, unassigned) [2-94 Isomer 2] |  |  |

More lines, now with the values behind:

| SMILES | EC50 [1, 3] [nM] | Emax [1, 4] [%] | EC50 [2, 5] [nM] | Emax [2, 6] [%] | % Emax cf. ACh, M1 ([1]; CHO cells stably expressing human M1, relative to ACh) [%] | % Emax cf. ACh, M4 ([2]; CHO cells stably expressing human M4, relative to ACh) [%] | Emax ([1]; read-out: % Emax cf. ACh, M1) [%] | Emax ([2]; read-out: % Emax cf. ACh, M4) [%] |
| --- | --- | --- | --- | --- | --- | --- | --- | --- |
| [2H]C([2H])([2H])COC(=O)N1CCC2(CC(N3CCC(c4ccnn4C)CC3)C2)C1 (single isomer, unassigned) [1-72 Isomer 2, (2,2,2-^2H3)ethyl 2-[4-(1-methyl-1H-pyrazol-5-yl)piperidin-1-yl]-6-azaspiro[3.4]octane-6-carboxylate] | > 20000 | 17 | 158 | 69 |  |  |  |  |
| CCOC(=O)N1CCC2(CC(N3CCC(c4nc(C(F)(F)F)c[nH]4)CC3)C2)C1 (single isomer, unassigned) [1-3 Isomer 2, ethyl 2-(4-(4-(trifluoromethyl)-1H-imidazol-2-yl)piperidin-1-yl)-6-azaspiro[3.4]octane-6-carboxylate] | 501 | 30 | 200 | 41 |  |  |  |  |
| CCOC(=O)N1CCC2(CC(N3CCC([C@@H]4CCCN4C(=O)OCCF)CC3)C2)C1 (single isomer, unassigned) [2-47 Isomer 2] | 6310 | 45 | 1000 | 63 |  |  |  |  |
| CCOC(=O)N1CCC2(CC(N3CCC(n4cncn4)CC3)C2)C1 (single isomer, unassigned) [1-36 Isomer 2, ethyl 2-[4-(1H-1,2,4-triazol-1-yl)piperidin-1-yl]-6-azaspiro[3.4]octane-6-carboxylate] | 5010 | 73 | 251 | 47 |  |  |  |  |
| [2H]C([2H])(C)OC(=O)N1CCC2(CC(N3CCC(n4cccn4)CC3)C2)C1 (single isomer, unassigned) [1-68 Isomer 2, (1,1-^2H2)ethyl 2-[4-(1H-pyrazol-1-yl)piperidin-1-yl]-6-azaspiro[3.4]octane-6-carboxylate] | 79.4 | 91 | 6.31 | 98 |  |  |  |  |
| CCOC(=O)N1CCC2(CC(N3CCC(c4c(CC)cnn4C)CC3)C2)C1 (single isomer, unassigned) [1-60 Isomer 2, ethyl 2-[4-(4-ethyl-1-methyl-1H-pyrazol-5-yl)piperidin-1-yl]-6-azaspiro[3.4]octane-6-carboxylate] | 316 | 82 | 39.8 | 88 |  |  |  |  |
| [2H]C([2H])(C)OC(=O)N1CCC2(CC(N3CCC(c4ccnn4C)CC3)C2)C1 (single isomer, unassigned) [1-71 Isomer 2, (1,1-^2H2)ethyl 2-[4-(1-methyl-1H-pyrazol-5-yl)piperidin-1-yl]-6-azaspiro[3.4]octane-6-carboxylate] | > 20000 | 6 | 100 | 69 |  |  |  |  |
| CCOC(=O)N1CCC2(CC(N3CCC(O)(c4nccn4C)CC3)C2)C1 (single isomer, unassigned) [1-39 Isomer 2, ethyl 2-[4-hydroxy-4-(1-methyl-1H-imidazol-2-yl)piperidin-1-yl]-6-azaspiro[3.4]octane-6-carboxylate] | 1000 |  | 398 |  |  |  | 49 | 97 |
| CCOC(=O)N1CCC2(CC(N3CCC([C@@H]4CCCN4CC)CC3)C2)C1 (single isomer, unassigned) [2-61 Isomer 2] | > 20000 | 10 | 501 | 40 |  |  |  |  |
| COC(=O)N1CCC2(CC(N3CCC(c4ccnn4C)CC3)C2)C1 (mixture of isomers) [1-20 Mixture of diastereomers, methyl 2-[4-(1-methyl-1H-pyrazol-5-yl)piperidin-1-yl]-6-azaspiro[3.4]octane-6-carboxylate] | > 20000 | 62 | 1000 | 56 |  |  |  |  |
| CCOC(=O)N1CCC2(CC(N3CCC(c4nnn[nH]4)CC3)C2)C1 (single isomer, unassigned) [1-31 Isomer 2, ethyl 2-[4-(1H-tetrazol-5-yl)piperidin-1-yl]-6-azaspiro[3.4]octane-6-carboxylate] | 2510 | 34 | 100 | 40 |  |  |  |  |
| COC(=O)N1CCC2(CC(N3CCC(c4nn(C)cc4C)CC3)C2)C1 (single isomer, unassigned) [1-55 Isomer 2, methyl 2-[4-(1,4-dimethyl-1H-pyrazol-3-yl)piperidin-1-yl]-6-azaspiro[3.4]octane-6-carboxylate] | 5010 | 40 | 501 | 64 |  |  |  |  |
